In article PMC3559838 (PLoS ONE, 2013):

B1: UGT1A1 (Homo sapiens) (protein)
chain: HAGKILLIPVDGSHWLSMLGAIQQLQQRGHEIVVLAPDASLYIRDGAFYTLKTYPVPFQREDVKESFVSLGHNVFENDSFLQRVIKTYKKIKKDSAMLLSGCSHLLHNKELMASLAESSFDVMLTDPFLPCSPIVAQYLSLPTVFFLHALPCSLEFEATQCPNPFSYVPRPLSSHSDHMTFLQRVKNMLIAFSQNFLCDVVYSPYATLASEFLQREVTVQDLLSSASVWLFRSDFVKDYPRPIMPNMVFVGGINCLHQNPLSQEFEAYINASGEHGIVVFSLGSMVSEIPEKKAMAIADALGKIPQTVLWRYTGTRPSNLANNTILVKWLPQNDLLGHPMTRAFITHAGSHGVYESICNGVPMVMMPLFGDQMDNAKRMETKGAGVTLNVLEMTSEDLENALKAVINDKSYKENIMRLSSLHKDRPVEPLDLAVFWVEFVMRHKGAPHLRPAAHDLTWYQYHSLDVIGFLLAVVLTVAFITFKCCAYGYRKCLGKKGRVKKAHKSKTH
notes: purchased BD Gentest

Legend:
Acidic stability test = format: physicochemical; details: for variation in concentrations between beginning and after 24 h: 37°C, acidic solutions pH 2.6–6.5; for stability in acidic solutions: 24 h incubation at 37°C, pH 2.6–6.5
Description: 1 mg/mL of belinostat-G and vorinostat-G was prepared in various vehicles with different pH values. These vehicles included 10 mM ammonium acetate (pH = 6.5), 10 mM ammonium formate (pH = 6.0), 0.1% acetic acid (pH = 3.2) and 0.1% formic acid (pH = 2.6). All of these test samples were incubated at 37°C for 24 h. Milli Q water (pH = 5.5) was used as control solution which was stored in −20°C. All the samples were analyzed by LC-MS/MS to obtain the values of peak area for belinostat-G and vorinostat-G. The acidic stability of both conjugated compounds was evaluated through comparison of peak area ratio of test samples versus control.

[1] = Pharmacokinetics after 30 min i.v. infusion, phase I trial in hepatocellular carcinoma patients; format: in vivo, human; details: for Relative Exposure, Bel-G/Bel AUC ratio: AUC0–24 h molar ratio; for relative systemic exposure of belinostat glucuronide versus belinostat: human plasma, molar concentration AUC ratio
Description: This multicentre phase I trial of belinostat was done in Hong Kong and Singapore. All patients provided written informed consent according to Good Clinical Practice guidelines, and the protocol was approved by the institutional review boards of Prince of Wales Hospital, Hong Kong and National University Hospital, Singapore.
Venous blood samples had been collected in heparinized tubes. Collected blood samples were centrifuged at 3000 g for 10–15 min and the plasma (supernatant) was separated from the cell pellet and stored in plain tubes at –80°C till analysis. […] Briefly, vorinostat-G was used as the internal standard for belinostat-G. The mass spectrometer was operated in positive ion mode with the optimal mass transitions of belinostat-G: m/z 495>93 and vorinostat-G: m/z 441>232, respectively. The analytical method was well validated with good linearity (coefficient of determination, r^2≥0.999) in the range of 1–100 µM for belinostat-G.
Pharmacokinetic parameters were estimated based on non-compartmental analysis model using WinNonlin software version 5.3 (Pharmsight, Sunnyvale, CA, USA). […] One way analysis of variance (ANOVA) was used to determine the significance among the genotypes with Tukey posthoc tests for adjustment for comparison between individual groups. A value of p<0.05 was considered to be significant.

HepG2 cells [2] = assay: Gentian Violet viability staining, 24-well plates; format: cell-based, human; details: 0–10 µM, 72 h
Description: (§1) To the other plate, equal molar concentrations of belinostat-G were added similarly. After 72 h, cells were stained with Gentian Violet paint (0.5% w/v; B.P.) and assessed for viability. […] After incubating 24 h, 100-µL drug solution or blank medium was added into each well of 96-well plates. 72 h later, 20 µL of MTS/PES was added into each well for incubation for 3 h. OD values are measured on wavelength 490 nm. Cell growth inhibition was calculated based on the […] with subtraction of background reading for only medium containing wells. The growth inhibition was defined as the percentage of the average […] from drug-treated wells over that from control wells without treatment. The experiment was done in triplicates. IC50 values were calculated using GraphPad PRISM software (GraphPad Software, Inc., La Jolla, CA, USA).

HepG2 cells [3] = assay: MTS growth inhibition assay; format: cell-based, human; details: HepG2, 72 h
Description: as §1

[4] = substrate: O=C(/C=C/c1cccc(S(=O)(=O)Nc2ccccc2)c1)NO; assay: UGT supersome screening and kinetic analysis; format: in vitro ADME, human; details: other: UGT1A1 supersomes, 10 to 750 µM substrate, Michaelis-Menten
Description: Before the addition of substrate, the incubation mixture was prewarmed and equilibrated for 5 min at 37°C. […] The incubation mixture was vortexed and centrifuged (10,060 g) at 4°C for 10 min, and the supernatants were analyzed. Insect microsomes without UGT cDNA served as negative control. […] Incubations were performed as described above. Three independent experiments were performed for kinetic analysis.
Plots of substrate concentration, S (X axis) versus v (Y axis) were then constructed. Km and Vmax were calculated using the Michaelis-Menten equation (GraphPad software, Inc., San Diego, CA, USA).

| Molecule | variation in concentrations between beginning and after 24 h (Acidic stability test) | stability in acidic solutions (Acidic stability test) | Relative Exposure, Bel-G/Bel AUC ratio ([1]; 600 mg/m^2) | Relative Exposure, Bel-G/Bel AUC ratio ([1]; 900 mg/m^2) | Relative Exposure, Bel-G/Bel AUC ratio ([1]; 1200 mg/m^2) | Relative Exposure, Bel-G/Bel AUC ratio ([1]; 1400 mg/m^2) | relative systemic exposure of belinostat glucuronide versus belinostat ([1]; listed as belinostat glucuronide) | relative systemic exposure of belinostat glucuronide versus belinostat ([1]; listed as belinostat-G) | degradation (Acidic stability test; pH 2.6, 37°C, 24 h) | cytotoxicity / cell viability (staining) (HepG2 cells [2]) | IC50 (MTS) (HepG2 cells [3]) | Km [4] | Vmax [4] | Vmax/Km [4] |
| --- | --- | --- | --- | --- | --- | --- | --- | --- | --- | --- | --- | --- | --- | --- |
| O=C(CCCCCCC(=O)Nc1ccccc1)NO[C@@H]1O[C@H](C(=O)O)[C@@H](O)[C@H](O)[C@H]1O [vorinostat-G, Vorinostat glucuronide] | < 4% | stable |  |  |  |  |  |  |  |  |  |  |  |  |
| O=C(/C=C/c1cccc(S(=O)(=O)Nc2ccccc2)c1)NO[C@@H]1O[C@H](C(=O)O)[C@@H](O)[C@H](O)[C@H]1O [Belinostat-G, Belinostat glucuronide] | < 4% | stable | 4.79±0.46 | 4.22±0.15 | 4.82±1.80 | 4.13±0.68 | more than 4 fold | 4 fold | 7% | did not seem to affect cell viability | cannot be converged |  |  |  |
| B1 |  |  |  |  |  |  |  |  |  |  |  | 99.6 µM | 353.1 pmol/min/mg protein | 3.5 µL/min/mg protein |
